{"source": "patent US8163870B2", "about": "“Channel forming peptides” (Kansas State University Research Foundation, priority 2000, dated 2012)", "key": {"[1]": {"target": "T1, tetrameric channel (four-helix bundle M2GlyR) (Homo sapiens, UniProt P23415)", "T1 construct": "four identical M2GlyR peptide units were tethered to a 9-amino acid carrier template to form a four-helix bundle protein; 9-amino acid carrier template (tethers four peptide units); host or cells: synthetic peptide construct reconstituted in lipid bilayers", "details": "cited from earlier work"}, "MDCK cells": {"system": "MDCK cells", "assay_type": "cell-based, canine", "text": "Cell culture: MDCK cells were a generous gift of Dr. Lawrence Sullivan (Kansas University Medical Center, Kansas City, Kans.). T84 cells were obtained from Dr. Daniel Devor (University of Pittsburgh, Pittsburgh, Pa.). MDCK and T84 cells were maintained with similar culture procedures. The culture medium was a 1:1 mixture of DMEM and Ham's F-12 (Gibco BRL, Grand Island, N.Y.) supplemented with 5% heat inactivated fetal bovine serum (BioWhittaker, Walkersville, Md.), and 1% penicillin and streptomycin (Gibco BRL). Cells were grown in plastic culture flasks in a humidified environment with 5% CO2 at 37° C. and passaged every 5-7 days. For Ussing chamber experiments, cells were plated on 1.13 cm^2 permeable supports (Snapwell™, Costar®, Cambridge, Mass.) at a density of approximately 1×10^6 cells/well and incubated in DMEM/F-12 supplemented with FBS and antibiotics (changed every other day) for 2-3 weeks prior to being mounted in modified Ussing flux chambers.\nTo form monolayers, the cells were plated onto the upper surface of a permeable membrane that forms the bottom of a plastic well. Two types were used. One was the Transwell™ insert (Costar®, Cambridge, Mass.) supported in a six-well tissue culture plate and the other type was the Snapwell™ (Costar®, Cambridge, Mass.). During incubation, the medium was replaced at 48-72 hour intervals. Confluent monolayers formed within 72 hours. Experiments were performed on the monolayers 6-9 days after the initial plating. Net fluid secretion responses were optimal after six days.\nSolutions: Ringer solution was made fresh daily. The final concentration (in mM) was 120 NaCl, 25 NaHCO3 3.3 KH2HPO4, 0.8 K2HPO4, 1.2 MgCl2, 1.2 CaCl2, (290±2 mOsmol). All components of the Ringer solution were from Sigma (St. Louis, Mo.).\n(§1) Epithelial electrical measurements: Transepithelial ion transport was evaluated in a modified Ussing chamber (Model DCV9, Navicyte, San Diego, Calif.). The Ussing chamber's fluid resistance compensation was completed in Ringer solution (see below). For electrical measurements cell monolayers were bathed in Ringer solution maintained at 37° C. and continuously bubbled with 5% CO2:95% O2. The transepithelial membrane potential (Vte) was clamped to zero and the transepithelial short circuit current (Isc), an indicator of net ion transport, was measured continuously with a voltage clamp apparatus (Model 558C, University of Iowa, Department of Bioengineering, Iowa City, Iowa). Data were digitally acquired at 1 Hz with a Macintosh computer (Apple Computer, Cuppertino, Calif.) using Aqknowledge software (ver. 3.2.6, BIOPAC Systems, Santa Barbara, Calif.) with an MP100A-CE interface.\nas §1, with “Transepithelial” for “Epithelial electrical measurements: Transepithelial”, “(composition (in mM) was 120 NaCl, 25 NaHCO3 3.3 KH2HPO4, 0.8 K2HPO4, 1.2 MgCl2, 1.2 CaCl2).” for “(see below).”\nMDCK cell monolayers (in the presence of 1-EBIO to maximize basolateral membrane K^+ conductance) were exposed on the apical aspect to escelating peptide concentrations. Maximal change in Isc (relative to the Isc prior to peptide exposure) was recorded following each increment in apical peptide concentration. […]"}, "MDCK monolayers": {"system": "MDCK monolayers", "test": "Transepithelial electrical resistance (RTE) / conductance (gTE) across MDCK monolayers", "assay_type": "cell-based, canine", "details": "for effect on transepithelial electrical resistance: upon onset of channel activity", "protocol": "as §1, with “Transepithelial” for “Epithelial electrical measurements: Transepithelial”, “(composition (in mM) was 120 NaCl, 25 NaHCO3 3.3 KH2HPO4, 0.8 K2HPO4, 1.2 MgCl2, 1.2 CaCl2).” for “(see below).”\nMDCK cell monolayers (in the presence of 1-EBIO to maximize basolateral membrane K^+ conductance) were exposed on the apical aspect to various concentrations of selected peptides as indicated.\nIn this experiment, the MDCK monolayers were initially incubated with 60 μM of SEQ ID No. 27. When the residual resistance reached approximately 10% of the starting value, the peptide was removed by aspiration and followed by the addition of pre-warmed Ringer solution. This solution was subsequently removed and replaced an additional five times over the next 2 minutes. In this figure, the solid central line represents the measured current at zero mV and the vertical deflections represent the current recorded during periodic 1 mV bipolar pulses. Pulse amplitude is inversely proportional to RTE in accordance with Ohm's law.\nAdditional experiments have been conducted to test for complete reversibility of peptide-induced changes in RTE. Monolayers were exposed to peptide (60 μM) in an Ussing chamber for ˜20 minutes to document decreases in RTE, recovered and returned to the cell culture incubator for two to five days with the apical and basolateral media refreshed daily before subsequent assessment of basal RTE and responsiveness to peptide. In the previous example, the return of RTE was only followed for hours. In this example, the restoration of RTE was measured over days to determine the minimum time require for full recovery.\nElectrical measurements. Transepithelial ion transport was evaluated in modified Ussing chambers (Model DCV9; Navicyte, San Diego, Calif.). For typical electrical measurements of ion flux, cells were bathed in symmetrical Ringer solution (composition in mM: 120 NaCl, 25 NaHCO3, 3.3 KH2HPO4, 0.8 K2HPO4, 1.2 MgCl2, 1.2 CaCl 2; 290±2 mOsmol). The diffusion chambers were maintained at 37° C. and continuously bubbled with 5% CO2/95% O2 to maintain pH, provide aeration and mix the fluid in the chambers. The transepithelial potential (VTE) was clamped to zero, and ISC measured continuously with a voltage-clamp apparatus (Model 558C, University of Iowa, Department of Bioengineering, Iowa City, Iowa). Data were acquired at 1 Hz with a Macintosh computer (Apple Computer, Cuppertino, Calif.) using Aqknowledge software (ver. 3.2.6; BIOPAC Systems, Santa Barbara, Calif.) with an MP100A-CE interface. gTE was determined by exposing the epithelia to a 5 second 1 mV bipolar pulse at 100 second intervals. The recorded current deflections were used with Ohms law to calculate gTE: […]"}, "[2]": {"test": "Chemical cross-linking (BS3) and SDS-PAGE, oligomeric state of peptide in solution", "assay_type": "physicochemical", "details": "SDS-PAGE", "protocol": "Chemical cross-linking: In order to visualize the oligomeric state of the peptide in solution a chemical cross-linking protocol was developed. Calculated amounts of each peptide were weighted out and dissolved in 1 mL of distilled water to make 1 mM stock solutions. A 100 mM stock solution of the chemical crosslinking reagent Bis[Sulfosuccinimidyl]suberate, BS^3, (Pierce Chemical Co., Rockford, Ill.) was prepared in dimethyl sulfoxide (DMSO). […] Sample were allowed to sit at room temperature for 15 minutes. 1-6 μL of 100 mM BS^3 was then added to the previously prepared peptide such that the crosslinking reagent was present in 20-fold excess. The final volume for each reaction was 100 μL. […] Each sample was then vacuum dried. Later dry samples were re-dissolved in 60 μL of distilled water along with 60 μL of a 2×-tricine SDS sample buffer (Novex, San Diego). All samples were then boiled at 100° C. for 5 minutes. 5 μL aliquots of each SDS boiled sample was then loaded into separate lanes of pre-cast, 1.0 mm, 10 well, 10-20% tricine gels (Novex, San Diego). Pre-made Novex tricine-SDS buffer was used in the electrophoresis. The reference well contained 1 μL of MultiMark® multi-colored molecular weight standard (Novex, San Diego). The electrophoresis was carried out at a constant 110 Volts for 90 minutes. […]"}, "[3]": {"test": "Circular dichroism in 20% TFE", "assay_type": "physicochemical", "details": "water containing 20% TFE", "protocol": "Circular dichroism: Circular dichroism spectra were recorded on a Jasco Model J-720 spectropolarimeter in the range 180-250 nm using quartz cuvettes with a 0.2 mm pathlength. Eight scans recorded at a rate of 20 nm/minute were averaged and corrected for contributions of buffer (10 mM HEPES, pH 7.2). […] The molar ellipticity was calculated using d-10-camphorsulfonic acid (290.5=7783° cm2 dmol 1) as a reference (Chen, G. C., and J. T. Yang. 1977. Two point calibration of spectropolarimeter with d-10-camphorsulfonic acid. Anal. Lett. 10:1195-1207.). The line shapes of the spectra were analyzed using a least-square fitting routine by comparison to polylysine standards representing 100%-helix, -turn, or random coil, respectively."}, "[4]": {"details": "cited from earlier work"}}, "note": "Several values for one entry are separate records, joined by “and”; a condition that tells them apart may be missing. Equal values may be shown once. Read-outs that look alike come from different tables or passages of the source. Non-standard residues stand in square brackets, D forms with d. No end group written: not given here.", "data": [{"compound": "O=C(O)c1c2ccccc2cc2ccccc12", "note": "[9-AC, 9-anthracene carboxylic acid]", "values": [{"measurement": "block of the tetrameric channel", "setting": "[1]", "value": "blocked"}]}, {"compound": "O=C(O)c1cccnc1Nc1cccc(C(F)(F)F)c1", "note": "[NFA, niflumic acid]", "values": [{"measurement": "block of the tetrameric channel", "setting": "[1]", "value": "blocked"}]}, {"compound": "Cc1cccc(C)c1NC(=O)C[N+](C)(C)C", "note": "[QX-222]", "values": [{"measurement": "block of the tetrameric channel", "setting": "[1]", "value": "not blocked"}]}, {"compound": "KKKKAARVGLGITTVWVTTIGLGVRAA (KKKKAARVGLGITTVWVTTIGLGVRAA; Modified Homo sapiens) [SEQ ID No. 9]", "values": [{"measurement": "Activity profile in MDCK cells", "setting": "MDCK cells; peptide at 100 μM", "value": 20.0, "unit": "μA/cm2"}, {"measurement": "Activity profile in MDCK cells", "setting": "MDCK cells; peptide at 100 μM, listed as 9", "value": 20.0, "unit": "at 100 μM μA/cm2"}, {"measurement": "effect on transepithelial electrical resistance", "setting": "MDCK monolayers", "value": "dramatic decrease in transepithelial electrical resistance"}, {"measurement": "aggregation state in solution", "setting": "[2]", "value": "remained in monomer form"}]}, {"compound": "KKKKPARVGLGITTVLVTTIGLGVRAA (KKKKPARVGLGITTVLVTTIGLGVRAA; Modified Homo sapiens) [SEQ ID No. 26]", "values": [{"measurement": "peptide concentration producing maximal effect on Isc (Imax)", "setting": "MDCK cells; MDCK monolayers", "value": 100, "unit": "µM"}, {"measurement": "Activity profile in MDCK cells", "setting": "MDCK cells; peptide at 100 μM", "value": 25.7, "unit": "at 100 μM μA/cm2"}, {"measurement": "effect on transepithelial electrical resistance", "setting": "MDCK monolayers", "value": "dramatic decrease in transepithelial electrical resistance"}, {"measurement": "secondary structure by CD", "setting": "[3]", "value": "helical structure"}]}, {"compound": "KKKKPARVGLGITTVLTMTTQW (Modified Homo sapiens) [SEQ ID No. 54]", "values": [{"measurement": "effect on transepithelial electrical resistance", "setting": "MDCK monolayers", "value": "dramatic decrease in transepithelial electrical resistance"}]}, {"compound": "KKKKPARVGLGITTVLTMTTRW (Modified Homo sapiens) [SEQ ID No. 55]", "values": [{"measurement": "decrease in RTE", "setting": "MDCK monolayers; 100 μM", "value": "~70", "unit": "%"}, {"measurement": "decrease in RTE", "setting": "MDCK monolayers; 200 μM", "value": "~90", "unit": "%"}, {"measurement": "effect on transepithelial electrical resistance", "setting": "MDCK monolayers", "value": "dramatic decrease in transepithelial electrical resistance"}]}, {"compound": "KKKKPARVGLGITTVLVTTIGLGVRAP [SEQ ID No. 18, KKKKPARVGL GITTVLVTTI GLGVRAP]", "values": [{"measurement": "EC50", "setting": "MDCK cells; MDCK monolayers, modified Hill equation fit, read-out: half maximal effect on Isc (EC50 / K1/2)", "value": 50, "unit": "µM"}, {"measurement": "effect on isolated cells", "setting": "isolated cells", "value": "not harmful to isolated cells"}]}, {"compound": "KKKKVTTIGLGVRAPLVTTIGLGVRAA (KKKKVTTIGLGVRAPLVTTIGLGVRAA; Modified Homo sapiens) [SEQ ID No. 5]", "values": [{"measurement": "Activity profile in MDCK cells", "setting": "MDCK cells; peptide at 500 μM", "value": "<1.0", "unit": "at 500 μM μA/cm2"}, {"measurement": "secondary structure by CD", "setting": "[3]", "value": "beta-sheet"}]}, {"compound": "PARVGLGITTVLTMTTQSSGSRA (PARVGLGITTVLTMTTQSSGSRA; listed as Homo sapiens) [SEQ ID No. 1]", "values": [{"measurement": "Activity profile in MDCK cells", "setting": "MDCK cells; peptide at 500 μM", "value": 1.5, "unit": "at 500 μM μA/cm2"}, {"measurement": "transference number for anions", "setting": "[4]; 5-fold KCl concentration gradient", "value": 0.85}, {"measurement": "single-channel conductance", "setting": "[4]; symmetric 0.5 M KCl, listed as M2GlyR", "value": "25 pS and 49 pS"}]}, {"compound": "PARVGLGITTVLVTTIGLGVRAPKKKK [SEQ ID No. 19, PARVGLGITT VLVTTIGLGV RAPKKKK]", "values": [{"measurement": "effect on isolated cells", "setting": "isolated cells", "value": "cytotoxic effects"}]}, {"compound": "all-D amino acid form of SEQ ID NO. 27: all-D amino acid form of SEQ ID NO. 27 ([dK][dK][dK][dK][dA][dA][dR][dV]G[dL]G[dI][dT][dT][dV][dL][dV][dT][dT][dI]G[dL]G[dV][dR][dA][dA])", "values": [{"measurement": "concentration triggering conductance increases", "setting": "MDCK monolayers", "value": 40, "unit": "µM"}]}]}
